This note sets out measurements from patent publication US20240109891A1, “NOVEL SUBSTITUTED TRICYCLIC AZA-HETEROCYCLES AS SOS1 INHIBITORS” (Viva Star Biosciences (Suzhou) Co., Ltd., priority 2021, published 2024).

Each structure is given as a SMILES string. Some results are limits rather than exact numbers.

For test [1], the target named is T1, KRAS G12C and SOS1 proteins (Homo sapiens, UniProt Q07889).
T1 construct: purchased Cisbio 63ADK000CB16PEG
T1 sequence (Q07889 1-1333): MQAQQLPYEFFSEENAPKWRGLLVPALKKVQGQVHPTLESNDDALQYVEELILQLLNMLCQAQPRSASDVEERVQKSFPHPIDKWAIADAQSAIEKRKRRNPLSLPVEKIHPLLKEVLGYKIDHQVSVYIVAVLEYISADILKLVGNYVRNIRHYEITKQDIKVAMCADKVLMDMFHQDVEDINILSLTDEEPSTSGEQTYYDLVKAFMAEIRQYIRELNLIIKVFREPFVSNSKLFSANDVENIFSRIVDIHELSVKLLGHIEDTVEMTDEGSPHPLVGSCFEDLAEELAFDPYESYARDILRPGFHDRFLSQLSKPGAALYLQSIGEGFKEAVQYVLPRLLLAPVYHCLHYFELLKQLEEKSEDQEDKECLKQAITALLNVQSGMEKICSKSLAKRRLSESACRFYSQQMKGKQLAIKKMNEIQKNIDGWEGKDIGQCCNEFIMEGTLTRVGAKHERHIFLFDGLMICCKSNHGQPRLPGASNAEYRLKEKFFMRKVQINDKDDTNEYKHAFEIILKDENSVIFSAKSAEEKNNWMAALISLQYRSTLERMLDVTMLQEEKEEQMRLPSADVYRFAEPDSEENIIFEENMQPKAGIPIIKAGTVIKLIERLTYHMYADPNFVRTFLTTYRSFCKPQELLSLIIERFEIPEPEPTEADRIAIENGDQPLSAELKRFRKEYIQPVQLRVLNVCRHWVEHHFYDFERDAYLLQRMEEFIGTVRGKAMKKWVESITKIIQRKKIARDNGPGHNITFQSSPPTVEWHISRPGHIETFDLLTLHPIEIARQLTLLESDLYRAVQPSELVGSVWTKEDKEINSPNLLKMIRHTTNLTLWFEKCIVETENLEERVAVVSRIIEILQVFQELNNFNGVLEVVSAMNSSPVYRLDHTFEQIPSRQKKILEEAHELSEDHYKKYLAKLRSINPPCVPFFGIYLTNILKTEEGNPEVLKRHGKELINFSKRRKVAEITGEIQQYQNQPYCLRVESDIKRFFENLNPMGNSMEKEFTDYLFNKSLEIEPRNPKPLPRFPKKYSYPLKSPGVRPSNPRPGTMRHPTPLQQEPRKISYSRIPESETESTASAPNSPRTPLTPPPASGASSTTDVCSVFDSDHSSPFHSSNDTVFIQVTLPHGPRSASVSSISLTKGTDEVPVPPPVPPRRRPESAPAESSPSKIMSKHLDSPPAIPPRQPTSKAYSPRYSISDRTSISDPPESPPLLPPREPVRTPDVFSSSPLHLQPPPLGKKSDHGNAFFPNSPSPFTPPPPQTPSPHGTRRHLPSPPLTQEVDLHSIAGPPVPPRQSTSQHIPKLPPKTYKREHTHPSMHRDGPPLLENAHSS
The test can be described thus: KRAS-G12C/SOS1 binding assay (HTRF). Conditions: Tag1-SOS1 / Tag2-KRAS G12C, 10 μM GTP. The method, then: KRAS-WT (or G12C/G12D/G12V)/SOS1 Binding Assay
Low IC50 values are indicative of high potency of the SOS1 inhibitor compounds in this assay setting.
The KRAS-WT (or G12C/G12D/G12V)/SOS1 binding assay is performed using an assay kit (Cisbio, Cat #63ADK000CB15PEG or 63ADK000CB16PEG/63ADK000CB17PEG/63ADK000CB18PEG) according to the procedure recommended by the manufacturer. • 1) Thaw and prepare the working solution of Tag1-SOS1 protein and Tag2-KRAS-WT (or G12C/G12D/G12V) protein with final concentration of 10 μM GTP (Sigma, Cat #V900868). • 2) Thaw and prepare the working solution of anti-Tag1-Tb^3+ anti-Tag2-XL665. • 3) Dispense 2 μL of serially diluted compound, 4 μL of Tag1-SOS1 protein and 4 μL of Tag2-KRAS-WT (or G12C/G12D/G12V) protein with GTP into a ProxiPlate-384 Plus, white 384-shallow well microplate (PerkinElmer, Cat #6008280). • 4) Incubate the plate for 15 minutes at room temperature. • 5) Dispense 10 μL of pre-mixed anti-Tag1-Tb^3+ and anti-Tag2-XL665 into the plate. • 6) Seal the plate and incubate for 2 hours at room temperature. • 7) Remove the plate sealer and read on PHERAstar FS (BMG LABTECH, PHERAstar FS). • 8) Calculate the ratio of the acceptor and donor emission signals for each individual well using the following equation.
[formula] • 9) IC50 values are fitted and calculated by HTRF signal values and log of compound concentrations to nonlinear regression [Log (inhibitor) vs. Response−Variable Slope (four parameters)] using the GraphPad Prism 8.0.
On the technique in general: TR-FRET usually uses a lanthanide donor and a delayed reading to cut background.

Test [2] has as its target T2, KRAS G12D and SOS1 proteins (Homo sapiens, UniProt Q07889).
T2 construct: purchased Cisbio 63ADK000CB17PEG
T2 sequence (Q07889 1-1333): T1 sequence (Q07889 1-1333)
As to the kind of experiment: KRAS-G12D/SOS1 binding assay (HTRF). Conditions: Tag1-SOS1 / Tag2-KRAS G12D, 10 μM GTP.

Test [3] deals with T3, KRAS-WT and SOS1 proteins (Homo sapiens, UniProt Q07889).
T3 construct: purchased Cisbio 63ADK000CB15PEG
T3 sequence (Q07889 1-1333): T1 sequence (Q07889 1-1333)
The test can be described thus: KRAS-WT/SOS1 binding assay (HTRF). Conditions: Tag1-SOS1 / Tag2-KRAS-WT, 10 μM GTP, read-out: Activity Data in Kras: SOS1 Assay, Wild Type.

With `Cc1nc(N[C@H](C)c2cccc3c2CCC3(F)F)c2cc(C3CCOCC3)c3nncn3c2n1` [Example 1, N-[(1R)-1-(1,1-difluoro-2,3-dihydro-1H-inden-4-yl)ethyl]-12-methyl-7-(oxan-4-yl)-2,4,5,11,13-pentaazatricyclo[7.4.0.0^{2,6}]trideca-1(9),3,5,7,10,12-hexaen-10-amine], the IC50 in test [1] and in test [2] was under 100 nM each time.

`COc1cc2c(cc1C1=CCOCC1)c(N[C@H](C)c1cccc3c1CCC3(F)F)nc1ccnn12` [Example 49, (R)-N-(1-(1,1-difluoro-2,3-dihydro-1H-inden-4-y1)ethyl)-7-(3,6-dihydro-2H-pyran-4-yl)-8-methoxypyrazolo[1,5-a]quinazolin-5-amine] registered an IC50 in test [1] of 100 to 500 nM.

For the compound `COc1cc2c(cc1C1CCOCC1)c(N[C@H](C)c1cccc(C(F)F)c1F)nc1ccnn12` [Example 47, (R)-N-(1-(3-(difluoromethyl)-2-fluorophenyl)ethyl)-8-methoxy-7-(tetrahydro-2H-pyran-4-yl)pyrazolo[1,5-a]quinazolin-5-amine], the IC50 was in the range of 100 to 500 nM in test [3], 500 to 5000 nM in test [1] and 500 to 5000 nM in test [2].

With `C[C@@H](Nc1nc2ccnn2c2cc(=O)n(C3CCOCC3)cc12)c1cccc(C(F)F)c1F` [Example 59, (R)-5-((1-(3-(difluoromethyl)-2-fluorophenyl)ethyl)amino)-7-(tetrahydro-2H-pyran-4-yl)pyrazolo[1,5-a]pyrido[3,4-e]pyrimidin-8(7H)-one], in test [1], the IC50 is under 100 nM.

Take `Cc1nc(N[C@H](C)c2cccc(C(F)(F)CO)c2)c2cc(C3CCOCC3)c3nncn3c2n1` [Example 2, (R)-2,2-difluoro-2-(3-(1-((2-methyl-6-(tetrahydro-2H-pyran-4-yl)-[1,2,4]triazolo[4′,3′:1,6]pyrido[2,3-d]pyrimidin-4-yl)amino)ethyl)phenyl)ethanol]: the IC50 in test [1] and in test [2] was under 100 nM each time.

On to `COc1cc2c(cc1C1CCOCC1)c(N[C@H](C)c1cccc(C(F)(F)CO)c1)nc1ccnn12` [Example 51, (R)-2,2-difluoro-2-(3-(1-((8-methoxy-7-(tetrahydro-2H-pyran-4-yl)pyrazolo[1,5-a]quinazolin-5-yl)amino)ethyl)phenyl)ethanol], for which the IC50 in test [3], in test [1] and in test [2] was 100 to 500 nM each time.

In test [1], `Cc1nc(N[C@H](C)c2cccc(C(F)(F)CO)c2)c2cc(-c3ccc(=O)n(C)c3)c3nncn3c2n1` [Example 6, (R)-5-(4-((1-(3-(1,1-difluoro-2-hydroxyethyl)phenyl)ethyl)amino)-2-methyl-[1,2,4]triazolo[4′,3′:1,6]pyrido[2,3-d]pyrimidin-6-yl)-1-methylpyridin-2(1H)-one] gave an IC50 of under 100 nM.

Regarding `COc1cc2c(cc1-c1ccc(=O)n(C)c1)c(N[C@H](C)c1cccc3c1CCC3(F)F)nc1ccnn12` [Example 46, (R)-5-(5-((1-(1,1-difluoro-2,3-dihydro-1H-inden-4-yl)ethyl)amino)-8-methoxypyrazolo[1,5-a]quinazolin-7-y1)-1-methylpyridin-2(1H)-one], the IC50 was under 100 nM in test [3], 100 to 500 nM in test [1] and 100 to 500 nM in test [2].

In turn, `COc1cc2c(cc1-c1ccc(=O)n(C)c1)c(N[C@H](C)c1cccc(C(F)F)c1F)nc1ccnn12` [Example 48, (R)-5-(5-((1-(3-(difluoromethyl)-2-fluorophenyl)ethyl)amino)-8-methoxypyrazolo[1,5-a]quinazolin-7-yl)-1-methylpyridin-2(1H)-one] had an IC50 in test [1] of 100 to 500 nM.

On to `Cc1nc(N[C@H](C)c2cccc(C(F)F)c2F)c2cc(C3CCOCC3)c3nncn3c2n1` [Example 5, (R)-N-(1-(3-(difluoromethyl)-2-fluorophenyl)ethyl)-2-methyl-6-(tetrahydro-2H-pyran-4-yl)-[1,2,4]triazolo[4′,3′:1,6]pyrido[2,3-d]pyrimidin-4-amine], for which the IC50 in test [1] was under 100 nM.

Regarding `COc1cc2c(cc1-c1ccc(=O)n(C)c1)c(N[C@H](C)c1cccc(C(F)(F)CO)c1)nc1ccnn12` [Example 45, (R)-5-(5-((1-(3-(1,1-difluoro-2-hydroxyethyl)phenyl)ethyl)amino)-8-methoxypyrazolo[1,5-a]quinazolin-7-yl)-1-methylpyridin-2(1H)-one], the IC50 was under 100 nM in test [3], 100 to 500 nM in test [1] and under 100 nM in test [2].

`Cc1nc(N[C@H](C)c2cccc3c2CCC3(F)F)c2cc(-c3ccc(=O)n(C)c3)c3nncn3c2n1` [Example 3, (R)-5-(4-((1-(1,1-difluoro-2,3-dihydro-1H-inden-4-yl)ethyl)amino)-2-methyl-[1,2,4]triazolo[4′,3′:1,6]pyrido[2,3-d]pyrimidin-6-yl)-1-methylpyridin-2(1H)-one] had an IC50 in test [1] of 100 to 500 nM.

Consider `C[C@@H](Nc1nc2ccnn2c2cc(=O)n(C3CCOCC3)cc12)c1cccc(C(F)(F)CO)c1` [Example 60, (R)-5-((1-(3-(1,1-difluoro-2-hydroxyethyl)phenyl)ethyl)amino)-7-(tetrahydro-2H-pyran-4-yl)pyrazolo[1,5-a]pyrido[3,4-e]pyrimidin-8(7H)-one], for which the IC50 in test [3], in test [1] and in test [2] was under 100 nM in each case.

In test [1], `COc1cc2c(cc1C1CCOCC1)c(N[C@H](C)c1cccc3c1CCC3(F)F)nc1ccnn12` [Example 50, (R)-N-(1-(1,1-difluoro-2,3-dihydro-1H-inden-4-yl)ethyl)-8-methoxy-7-(tetrahydro-2H-pyran-4-yl)pyrazolo[1,5-a]quinazolin-5-amine] came in with an IC50 of 100 to 500 nM.
